The results in this text go back to PMC10892375, “Determination of the Cannabinoid CB1 Receptor’s Positive Allosteric Modulator Binding Site through Mutagenesis Studies” (Pharmaceuticals, 2024).

What all share (assay type): cell-based
One assay concerns the target T1, WT hCB1 (Homo sapiens, UniProt P21554).
T1 construct: expressed in transfected cells; host or cells: HEK293
The assay can be described thus: pIRES G protein dissociation BRET assay, WT hCB1. Conditions: for Allosteric modulation of maximal CP55940-induced G protein dissociation / Effect on the potency of CP55940-induced G protein dissociation: 10 μM allosteric ligand; for Allosteric modulation of maximal CP55940-induced G protein dissociation / Effect on the potency of CP55940-induced G protein dissociation / Allosteric agonism: G protein dissociation in the absence of an orthosteric ligand: result in words; for G protein dissociation, AUC of 10 μM compound (maximal response): 10 μM ligand alone. The protocol:
(§1) Mutagenesis studies using the pIRES G protein dissociation assay were performed using human embryonic kidney 293 (HEK293) wild-type cells transiently transfected with pplss-3HA-hCB1 [31] or modified receptor. All cells were cultured in Dulbecco’s Modified Eagle’s Medium (DMEM) supplemented with 10% fetal bovine serum (FBS), grown in […] vented-cap flasks, and maintained in a 37° C incubator at 5% CO2.
(§2) Dissociation of the G protein heterotrimer, specifically Gαi1, Gβ1, and Gγ2, was investigated using a bioluminescence resonance energy transfer (BRET) assay with the pIRES biosensor first described by and adapted by.
(§3) Briefly, 3 × 10^6 WT HEK293 cells were seeded into 10 cm culture dishes (Corning, Corning, NY, USA; one dish for the control receptor and one for each modified receptor) and incubated at 37 °C for 24 h to gain 50–60% confluency. Culture medium was then replaced and transfection mixtures containing 3 μg pIRES vector and 1 μg receptor (either pplss-hCB1 or modified receptor) were prepared (4 μg total DNA). Plasmids were initially diluted in sterile Milli-Q water before being diluted in OptiMEM reduced serum medium (Thermo Fisher Scientific, Waltham, MA, USA) and combined with […] polyethylenimine (PEI)-max (1:9 DNA:PEI-max ratio) and incubated at room temperature for 20 min. Transfection mixtures were then added to cells via dropwise addition, and cells were incubated at 37 °C for 24 h. Transfected cells were lifted and plated at 50,000 cells/well into poly-d-lysine (PDL; Sigma-Aldrich) coated white 96-well CulturPlates (PerkinElmer, Waltham, MA, USA) and incubated for a further 24 h at 37 °C.
To assay, the culture medium was aspirated and cells were washed with phosphate buffered saline (PBS) and replaced with BRET assay medium (phenol red free DMEM containing 25 mM HEPES and supplemented with 1 mg/mL bovine serum albumin; BSA, MP Biomedicals, Auckland, New Zealand) for 30 min prior to drug addition (serum starve). Drugs were prepared at 10 × concentration in BRET assay medium, combined in a polypropylene V-bottom plate, and incubated at 37° C prior to drug stimulation. Coelenterazine-h (Nanolight Technology, Prolume Ltd, Pinetop, AZ, USA) was prepared at 10 × concentration in BRET assay medium (final concentration 5 μM) and dispensed to cells immediately prior to drug stimulation. Plates were transferred to the LUMIstar Omega plate reader (BMG Labtech GmbH, Ortenburg, BW, Germany) and luminescence (475 and 535 nm) was detected simultaneously in the dark with BRET1 filters for approximately 5 min to establish a baseline BRET ratio. Drugs were added to cells, plates were returned to the LUMIstar and luminescence was detected for a further 25 min. BRET ratios (475/535) were calculated in Omega MARS software v 3.32, exported, and data were analysed using GraphPad Prism v8. Baseline correction was performed using an in-built function in GraphPad Prism, subtracting vehicle BRET ratios from matched conditions. Area under the curve (AUC) analysis was performed in GraphPad Prism using an in-built function to obtain concentration response data.
All data analysis was performed using GraphPad Prism v8. Sigmoidal concentration series were generated by performing AUC analysis and fit using three-parameter nonlinear regression curves. Statistical analyses were performed using data interpolated from nonlinear regression curves using parameters derived from five independent biological replicates. Both one- and two-way repeated measures ANOVA and paired t-tests were used where appropriate (specified in-text), and posthoc tests, specified in text, were performed when significance was reached (p < 0.05). Time course data presented in this manuscript are pooled data (n = 5) and expressed as mean ± SEM. Concentration response data are representative, data expressed as mean ± SD from technical triplicates, to avoid misestimation of parameters from combined/pooled data.
On the technique in general: In BRET a luciferase serves as donor, and the signal depends on an acceptor being close.

The target of another assay is T2, hCB1 mutant Y172A^2.59 (Homo sapiens, UniProt P21554, Y172A).
T2 construct: expressed in transfected cells; host or cells: HEK293
T2 sequence (P21554 whole entry Y172A): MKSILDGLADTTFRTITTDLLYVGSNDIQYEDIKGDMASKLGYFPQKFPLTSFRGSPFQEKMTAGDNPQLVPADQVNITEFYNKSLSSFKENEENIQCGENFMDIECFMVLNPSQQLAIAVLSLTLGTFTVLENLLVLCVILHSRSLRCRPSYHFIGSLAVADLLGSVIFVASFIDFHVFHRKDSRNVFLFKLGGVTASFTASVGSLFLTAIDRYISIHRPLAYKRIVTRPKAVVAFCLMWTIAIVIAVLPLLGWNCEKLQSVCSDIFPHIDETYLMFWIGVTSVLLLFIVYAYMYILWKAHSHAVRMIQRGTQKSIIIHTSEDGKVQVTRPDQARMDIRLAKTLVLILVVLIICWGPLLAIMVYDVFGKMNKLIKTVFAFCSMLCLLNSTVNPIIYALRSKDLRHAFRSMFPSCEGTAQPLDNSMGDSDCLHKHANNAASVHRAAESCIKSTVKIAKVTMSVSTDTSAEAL
Nature of the assay: pIRES G protein dissociation BRET assay, Y172A mutant. As to conditions: for G protein dissociation, AUC of 10 μM compound (maximal response): 10 μM ligand alone; for Increase in the potency of CP55940-induced G protein dissociation: 10 μM allosteric ligand. The protocol: as §1
(§4) Mutants of pplss-3HA-hCB1 (WT, pEF-V4-HisA (pEF4a) construct) were generated using a modified QuikChange® (Stratagene, San Diego, CA, USA) site-directed mutagenesis approach using KAPA HiFi Hotstart Polymerase (KAPA Biosystems, Roche, Basel, Switzerland). Briefly, single-stranded primers used to modify one or two base pairs within the target amino acid using PCR were purchased from Integrated DNA Technologies (IDT, Coralville, IA, USA). All pplss-hCB1 mutants were generated using the pplss-3HA-hCB1 pEF4a as parental DNA. PCR products were generated using recommended cycling conditions and treated with Dpn1 (New England Biolabs, Ipswich, MA, USA) overnight at 37° C to digest methylated parental DNA. PCR products were electrophoresed and run on an agarose gel (1% (w.v^−1) agarose, HydraGene, Piscataway, NJ, USA) containing 0.25 μg/mL ethidium bromide (Sigma-Aldrich, St. Louis, MO, USA). Gels were run in 40 mM TRIS-acetate buffer containing […] (pH 8.3) at 100 V for 30 min, maximum current and included a 1kb+ DNA ladder (Invitrogen, Thermo Fisher Scientific, Carlsbad, CA, USA) for reference. Gels were imaged using an UVTech Alliance Q9 Mini transilluminator (UVTech Alliance, Cambridge, UK). Digested products were then used to transform NEB 5α competent E. coli cells in accordance with manufacturer’s instructions. Briefly, transformed PCR products were grown overnight on 8.5 mL Luria Broth agar plates (containing 100 μg/mL ampicillin) at 37° C. Single bacterial colonies were picked and inoculated in Luria Broth (containing 100 μg/mL ampicillin) and grown overnight in a shaking incubator at 37° C. Plasmids were then harvested and purified using a Qiagen miniprep kit (Qiagen, Hilden, Germany) and validated using sequencing (Genetics Analysis Service, University of Otago, Dunedin, New Zealand).
as §2, §3
(§5) To assay, the culture medium was aspirated and cells were washed with phosphate buffered saline (PBS) and replaced with BRET assay medium (phenol red free DMEM containing 25 mM HEPES and supplemented with 1 mg/mL bovine serum albumin; BSA, MP Biomedicals, Auckland, New Zealand) for 30 min prior to drug addition (serum starve). Drugs were prepared at 10 × concentration in BRET assay medium, combined in a polypropylene V-bottom plate, and incubated at 37° C prior to drug stimulation.

The target of another assay is T3, hCB1 mutant F191A^3.27 (Homo sapiens, UniProt P21554, F191A).
T3 construct: expressed in transfected cells; host or cells: HEK293
T3 sequence (P21554 whole entry F191A): as the sequence (P21554 whole entry Y172A) above, with A172Y, F191A counted along it
Nature of the assay: pIRES G protein dissociation BRET assay, F191A mutant. As to conditions: for G protein dissociation, AUC of 10 μM compound (maximal response): 10 μM ligand alone; for Allosteric agonism: G protein dissociation in the absence of an orthosteric ligand: 10 μM, result in words. As to the method: as §1, §4, §2, §3, §5

In the next assay the target is T4, hCB1 mutant F237A^4.46 (Homo sapiens, UniProt P21554, F237A).
T4 construct: expressed in transfected cells; host or cells: HEK293
T4 sequence (P21554 whole entry F237A): as the sequence (P21554 whole entry Y172A) above, with A172Y, F237A counted along it
Nature of the assay: pIRES G protein dissociation BRET assay, F237A mutant. Conditions: for G protein dissociation, AUC of 10 μM compound (maximal response): 10 μM ligand alone. As to the method: as §1, §4, §2, §3, §5

[1] abbreviates: 10 μM CP55940 in the presence of 10 μM ZCZ011.
The mark [2] stands for this setting: in the presence of 10 μM GAT228.
Where [3] appears, read: in the presence of 10 μM GAT229.
Setting [4] is: top of the curve (maximal response).

T1 sequence (P21554 whole entry): as the sequence (P21554 whole entry Y172A) above, with A172Y counted along it

As to `CCCCCCC(C)(C)c1ccc([C@@H]2C[C@H](O)CC[C@H]2CCCO)c(O)c1` [CP55940], the “G protein dissociation, AUC, 10 μM CP55940 + 10 μM ZCZ011” value on WT hCB1 (setting [1]) is recorded as −215.9 ± 2.9; at hCB1 mutant Y172A^2.59 (setting [1]), −305.2 ± 5.7; at hCB1 mutant F191A^3.27 (setting [1]), −134.7 ± 12.4; at hCB1 mutant F237A^4.46 (setting [1]), −85.2 ± 9.9. Further, the “EMAX, CP55940 + 10 μM GAT228” value on WT hCB1 (setting [2]) was −194.2 ± 7.3 ∆BRET.sec; at hCB1 mutant Y172A^2.59 (setting [2]) it was −298.9 ± 5.4 ∆BRET.sec; at hCB1 mutant F191A^3.27 (setting [2]), −123.9 ± 7.4 ∆BRET.sec; at hCB1 mutant F237A^4.46 (setting [2]), −69.4 ± 6.4 ∆BRET.sec. The “EMAX, CP55940 + 10 μM GAT229” value at WT hCB1 (setting [3]) is given as −205.1 ± 7.8 ∆BRET.sec; on hCB1 mutant Y172A^2.59 (setting [3]), −309.0 ± 3.5 ∆BRET.sec; at hCB1 mutant F191A^3.27 (setting [3]), −119.1 ± 7.8 ∆BRET.sec; on hCB1 mutant F237A^4.46 (setting [3]), −67.4 ± 8.3 ∆BRET.sec. The “EMAX, CP55940 Alone” value is given as −184.1 ± 3.8 ∆BRET.sec on WT hCB1 (setting [4]), −273.2 ± 6.9 ∆BRET.sec on hCB1 mutant Y172A^2.59 (setting [4]), −117.3 ± 6.1 ∆BRET.sec at hCB1 mutant F191A^3.27 (setting [4]) and −69.8 ± 6.7 ∆BRET.sec on hCB1 mutant F237A^4.46 (setting [4]). In addition, the “G protein dissociation, AUC of 10 μM compound (maximal response)” value (“G protein dissociation … (maximal response)” below) on hCB1 mutant Y172A^2.59 was −284.7 ± 8.4; on hCB1 mutant F191A^3.27, −117.8 ± 7.5; on hCB1 mutant F237A^4.46, −69.8 ± 6.5.
Take `O=[N+]([O-])C[C@H](c1ccccc1)c1c(-c2ccccc2)[nH]c2ccccc12` [GAT228]: at WT hCB1, the “Allosteric modulation of maximal CP55940-induced G protein dissociation” value (shortened to “Allosteric modulation”) is “did not alter CP55940-induced G protein dissociation”; the “Effect on the potency of CP55940-induced G protein dissociation” value was “small but significant decrease in the potency of CP55940”; the “G protein dissociation … (maximal response)” value is listed as −105.7 ± 7.2; the “Allosteric agonism: G protein dissociation in the absence of an orthosteric ligand” value (shortened to “Allosteric agonism”) is given as “increased wild-type G protein dissociation”. At hCB1 mutant Y172A^2.59, the “Increase in the potency of CP55940-induced G protein dissociation” value is “less than 0.5 log units” and the “G protein dissociation … (maximal response)” value was −133.4 ± 9.8. At hCB1 mutant F191A^3.27, the “G protein dissociation … (maximal response)” value is given as 19.5 ± 11.9 and the “Allosteric agonism” value was “abolished”. Further, on hCB1 mutant F237A^4.46, the “G protein dissociation … (maximal response)” value is on record as −40.8 ± 2.8.
In the case of `O=[N+]([O-])C[C@@H](c1ccccc1)c1c(-c2ccccc2)[nH]c2ccccc12` [GAT229], on WT hCB1, the “Allosteric modulation” value was “increased maximal CP55940-induced G protein dissociation”; the “Effect on the potency of CP55940-induced G protein dissociation” value is recorded as “Neither GAT229 nor GAT228 increased the potency”; the “G protein dissociation … (maximal response)” value is recorded as −148.6 ± 7.2; the “Allosteric agonism” value is recorded as “increased wild-type G protein dissociation”. At hCB1 mutant Y172A^2.59, the “Increase in the potency of CP55940-induced G protein dissociation” value is “less than 0.5 log units” and the “G protein dissociation … (maximal response)” value is −207.0 ± 7.1. Also, on hCB1 mutant F191A^3.27, the “G protein dissociation … (maximal response)” value is reported as 22.1 ± 6.4 and the “Allosteric agonism” value is given as “abolished”. The “G protein dissociation … (maximal response)” value on hCB1 mutant F237A^4.46 is −52.4 ± 5.2.
For the molecule `Cc1ccc2c(C(C[N+](=O)[O-])c3cccs3)c(-c3ccccc3)[nH]c2c1` (centres unmarked) [ZCZ011, 6-Methyl-3-(2-nitro-1-(thiophen-2-yl)ethyl)-2-phenyl-1 H-indole], the “Allosteric modulation” value at WT hCB1 is reported as “increased maximal CP55940-induced G protein dissociation”. Besides, the “G protein dissociation … (maximal response)” value on WT hCB1 is listed as −167.3 ± 3.2; on hCB1 mutant Y172A^2.59, −142.1 ± 14.4; at hCB1 mutant F191A^3.27 it was 35.0 ± 8.4; at hCB1 mutant F237A^4.46, −64.2 ± 4.1. The “Allosteric agonism” value at WT hCB1 is given as “increased wild-type G protein dissociation”; at hCB1 mutant F191A^3.27, “abolished”.
